Here are results for 1 substance from patent publication US20070249588A1 (priority 2003, published 2007).

The term Kd denotes the equilibrium constant for the complex coming apart. The low end stands for a tighter complex, the high end for a looser complex.

This assay addresses α7 nAChR subtype (Rattus norvegicus, UniProt Q05941). The format is binding.

α7 nAChR subtype, sequence (Q05941 23-502 limits assumed): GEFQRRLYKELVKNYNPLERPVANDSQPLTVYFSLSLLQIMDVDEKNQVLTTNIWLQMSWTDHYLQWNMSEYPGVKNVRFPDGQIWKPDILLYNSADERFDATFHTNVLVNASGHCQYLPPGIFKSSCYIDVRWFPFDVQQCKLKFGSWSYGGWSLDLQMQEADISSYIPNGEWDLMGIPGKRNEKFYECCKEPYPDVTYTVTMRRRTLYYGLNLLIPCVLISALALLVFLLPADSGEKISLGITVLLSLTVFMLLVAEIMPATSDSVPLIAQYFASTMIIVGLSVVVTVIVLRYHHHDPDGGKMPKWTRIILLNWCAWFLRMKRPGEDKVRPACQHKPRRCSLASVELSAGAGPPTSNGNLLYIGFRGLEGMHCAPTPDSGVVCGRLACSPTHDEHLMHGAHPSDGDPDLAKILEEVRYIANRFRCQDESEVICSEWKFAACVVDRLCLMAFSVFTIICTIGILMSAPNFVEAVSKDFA

On to ^125I-α-Bungarotoxin [^125I-α-BTX], for which the Kd came to 1.67 nM.
